# Measurements reported in publication PMC8330795, “In silico identification and experimental validation of cellular uptake by a new cell penetrating peptide P1 derived from MARCKS” (Drug Delivery, 2021).
# How the values were obtained:
# BV2 cells = assay: Cellular uptake of FITC-labeled peptide, fluorescence microscopy and lysate fluorescence; format: cell-based, mouse; details: FITC-labeled peptide 5 μM
# Experimental: (§1) Cells were suspended in regular culture media and seeded on coverslip in a 24-well plate at a concentration of 1.6 × 10^4 cells/well. Rinsing with PBS twice after 24 h of incubation for cell attachment, FITC-labeled peptides at indicated concentrations were added with 0.5 ml serum-free media/well and incubated for 1 hour at 37 °C. After incubation, the cells were washed with PBS at least three times. 4′,6-diamidino-2-phenylindole (DAPI) was added to each well and incubated for 5 min after fixation with 4% paraformaldehyde (PFA) in PBS. The cells were washed with PBS, mounted on the slide, and observed by fluorescence microscopy (Nikon, Tokyo, Japan).
# (§2) To analyze the internalization efficiency of CPP, the fluorescence of cell lysates and supernatants was measured using TECAN Safire multi-well reader with excitation and emission wavelengths set to 485 nm and 535 nm, following the protocol published (Wang et al., [2010]; Ma et al., [2015]; Wang et al., [2016]; [2016]; Zhou et al., [2017]; Shao et al., [2016]; Zhang et al., [2019]; Geng et al., [2020]). After the cell incubation with peptide and washing step described above, cells were lysed with 300 µl lysis buffer (0.1 M NaOH) for 10 minutes and centrifuged at 800 rpm for 5 minutes. Fluorescence in the 50 µl supernatant transferred to a 96-well plate was monitored by the plate-reader spectrophotometer (Tecan, Mannedorf, Switzerland). […]
# BV2 = assay: Peptide-mediated transfection of pdsRed plasmid, RFP expression; format: cell-based, mouse; details: BV2, 80:1 group
# Experimental: HSC-T6, BV2 and MCF7 cells (4 × 10^4 cells/well) were seeded onto 24-well plates 24 h before the experiment. Cells were incubated with CPP-P1/pDNA complexes at indicated N/P ratios for 4 hrs in serum-free media, and then were incubated for 24 h or 48 h after adding media with 10% serum. Live cell imaging under fluorescence microscope was carried out to estimate peptide-based transfection efficiency. Cells transfected with TurboFectin (OriGene, Beijing, China) were used as positive transfection reagent.
# MCF7 = assay: Cellular uptake of FITC-labeled peptide, fluorescence microscopy and lysate fluorescence; format: cell-based, human; details: FITC-labeled peptide 5 μM; MCF7 compared with other cell lines
# Experimental: as §1, §2
# HSC-T6 cells [1] = assay: as above; format: cell-based, rat
# Experimental: Cells were suspended in regular culture media and seeded on coverslip in a 24-well plate at a concentration of 1.6 × 10^4 cells/well. Rinsing with PBS twice after 24 h of incubation for cell attachment, FITC-labeled peptides at indicated concentrations were added with 0.5 ml serum-free media/well and incubated for 1 hour at 37 °C. After incubation, the cells were washed with PBS at least three times. 4′,6-diamidino-2-phenylindole (DAPI) was added to each well and incubated for 5 min after fixation with 4% paraformaldehyde (PFA) in PBS. The cells were washed with PBS, mounted on the slide, and observed by fluorescence microscopy (Nikon, Tokyo, Japan). To analyze the internalization efficiency of CPP, the fluorescence of cell lysates and supernatants was measured using TECAN Safire multi-well reader with excitation and emission wavelengths set to 485 nm and 535 nm, following the protocol published (Wang et al., [2010]; Ma et al., [2015]; Wang et al., [2016]; [2016]; Zhou et al., [2017]; Shao et al., [2016]; Zhang et al., [2019]; Geng et al., [2020]). After the cell incubation with peptide and washing step described above, cells were lysed with 300 µl lysis buffer (0.1 M NaOH) for 10 minutes and centrifuged at 800 rpm for 5 minutes. Fluorescence in the 50 µl supernatant transferred to a 96-well plate was monitored by the plate-reader spectrophotometer (Tecan, Mannedorf, Switzerland). The amount of FITC-labeled peptides internalized were normalized by protein concentration, and the experiments indicated were repeated at least three times.
# Mouse erythrocytes = assay: Hemolysis assay; format: cell-based; details: mouse erythrocytes in PBS, 37 °C, 2 h, absorbance 450 nm; 0.1% Triton X-100 positive control
# Experimental: Mouse erythrocytes free of plasma components were separated by centrifugation at 1000 rpm for 5 minutes and washed three times with PBS. The washed mouse erythrocytes were resuspended in PBS and treated with indicated concentrations of peptides at 37 °C for 2 h. Hemolysis was examined by measuring the absorbance of supernatant at the wavelength of 450 nm, and 0.1% Triton X-100 was used as a positive control.
# HSC-T6 cells [2] = system: HSC-T6 cells
# Experimental: Cytotoxicity was measured using MTT assay. Grown cells were inoculated for 24 h at a density of 10000 cells/well in 96-well plates. After washing with PBS, the indicated concentrations of peptides were added, following by further incubation for 24 h or 48 h. After at least two-times washing, 5 mg/ml MTT dissolved in PBS with serum-free media was added into plates for another 4 h incubation. Dimethyl sulfoxide (DMSO) was added into plates and incubated at 37 °C for 15–30 minutes to dissolve the formazan crystals. The absorbance of aliquot from each well was measured at 490 nm using a Multiskan Spectrum (Thermo Fisher Scientific, Waltham, MA, USA) microplate reader. Experiments were repeated three times.
sequence,measurement,setting,value
KKKKKRFSFKKSFKLSGFSFKKNKK [P1],penetration into hard-to-translocate cells,BV2 cells,could enter into hard-to-translocate BV2 cells in significant amount
same,RFP expression at N/P 80:1,BV2,could not find RFP positive cells
same,penetration efficiency in different cell lines,MCF7,higher penetration efficiency in MCF7
same,penetration efficiency with chloroquine (CQ),"HSC-T6 cells [1]; 100 μM CQ, fluorescent quantification, Figure S6, cell line not stated at place",no obvious effect
same,fluorescence of peptide versus incubation time,"HSC-T6 cells [1]; FITC-labeled peptide 5 μM, after 1 hour treatment, longer incubation times, images and fluorescence quantification",significantly decreased as incubation time increased
same,penetration property versus peptide concentration,"HSC-T6 cells [1]; FITC-labeled peptide, 1 hour, 37 °C, serum-free media, fluorescence normalized with protein concentration",concentration dependent
same,penetration efficiency with sucrose,"HSC-T6 cells [1]; peptide 5 μM with 0.3 M and 0.6 M sucrose, cell line not stated at place",inhibited
same,penetration efficiency with penetration enhancer DMSO,"HSC-T6 cells [1]; peptide 5 μM with 5% DMSO (2.5% and 5% tested), cell line not stated at place",enhanced
same,penetration efficiency at low temperature,"HSC-T6 cells [1]; peptide 5 μM, 25 °C and 4 °C compared to 37 °C",significantly inhibited
same,uptake inhibited by endocytosis inhibitors,"HSC-T6 cells [1]; peptide 5 μM, same inhibitor list, inhibitor giving this value not specified",about 20%
same,penetration efficiency compared with other published CPPs,"HSC-T6 cells [1]; peptides 5 μM, FITC-labeled, versus MT23 and TAT, cell line not stated at place",higher penetration efficiency than MT23 and TAT
same,hemolysis of red blood cells,Mouse erythrocytes,minimally perturbed
same,"cytotoxicity, MTT assay",HSC-T6 cells [2],did not find significant cytotoxicity
